Where only a bound is given, the exact number is not on record here.

Results on 25 compounds are retold here after US10988477B2 (Merck Patent GmbH, priority 2018, dated 2021).

In one assay the target is GCN2 kinase (Homo sapiens, UniProt Q9P2K8). The assay is described as follows: GCN2 enzyme inhibition assay (Transcreener ADP2 fluorescence polarization). The assay is classed as biochemical. Conditions: Enzyme activity for compounds of Formula IV; Ki(app), 280 μM ATP, 25° C. The procedure, abridged: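 Human GCN2 (4 nM) preincubated 10 min with compound (0–8 μM) and 200 μM (RS)7 peptide in Tris-HCl pH 7.5, NaCl, MgCl2, DTT. Reaction started with 280 μM ATP, run 1 h at 25 °C. ADP detected by Transcreener fluorescence polarization. IC50 and Ki(app) fitted by tight-binding algorithm.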
Sequence of GCN2 kinase (Q9P2K8 whole entry): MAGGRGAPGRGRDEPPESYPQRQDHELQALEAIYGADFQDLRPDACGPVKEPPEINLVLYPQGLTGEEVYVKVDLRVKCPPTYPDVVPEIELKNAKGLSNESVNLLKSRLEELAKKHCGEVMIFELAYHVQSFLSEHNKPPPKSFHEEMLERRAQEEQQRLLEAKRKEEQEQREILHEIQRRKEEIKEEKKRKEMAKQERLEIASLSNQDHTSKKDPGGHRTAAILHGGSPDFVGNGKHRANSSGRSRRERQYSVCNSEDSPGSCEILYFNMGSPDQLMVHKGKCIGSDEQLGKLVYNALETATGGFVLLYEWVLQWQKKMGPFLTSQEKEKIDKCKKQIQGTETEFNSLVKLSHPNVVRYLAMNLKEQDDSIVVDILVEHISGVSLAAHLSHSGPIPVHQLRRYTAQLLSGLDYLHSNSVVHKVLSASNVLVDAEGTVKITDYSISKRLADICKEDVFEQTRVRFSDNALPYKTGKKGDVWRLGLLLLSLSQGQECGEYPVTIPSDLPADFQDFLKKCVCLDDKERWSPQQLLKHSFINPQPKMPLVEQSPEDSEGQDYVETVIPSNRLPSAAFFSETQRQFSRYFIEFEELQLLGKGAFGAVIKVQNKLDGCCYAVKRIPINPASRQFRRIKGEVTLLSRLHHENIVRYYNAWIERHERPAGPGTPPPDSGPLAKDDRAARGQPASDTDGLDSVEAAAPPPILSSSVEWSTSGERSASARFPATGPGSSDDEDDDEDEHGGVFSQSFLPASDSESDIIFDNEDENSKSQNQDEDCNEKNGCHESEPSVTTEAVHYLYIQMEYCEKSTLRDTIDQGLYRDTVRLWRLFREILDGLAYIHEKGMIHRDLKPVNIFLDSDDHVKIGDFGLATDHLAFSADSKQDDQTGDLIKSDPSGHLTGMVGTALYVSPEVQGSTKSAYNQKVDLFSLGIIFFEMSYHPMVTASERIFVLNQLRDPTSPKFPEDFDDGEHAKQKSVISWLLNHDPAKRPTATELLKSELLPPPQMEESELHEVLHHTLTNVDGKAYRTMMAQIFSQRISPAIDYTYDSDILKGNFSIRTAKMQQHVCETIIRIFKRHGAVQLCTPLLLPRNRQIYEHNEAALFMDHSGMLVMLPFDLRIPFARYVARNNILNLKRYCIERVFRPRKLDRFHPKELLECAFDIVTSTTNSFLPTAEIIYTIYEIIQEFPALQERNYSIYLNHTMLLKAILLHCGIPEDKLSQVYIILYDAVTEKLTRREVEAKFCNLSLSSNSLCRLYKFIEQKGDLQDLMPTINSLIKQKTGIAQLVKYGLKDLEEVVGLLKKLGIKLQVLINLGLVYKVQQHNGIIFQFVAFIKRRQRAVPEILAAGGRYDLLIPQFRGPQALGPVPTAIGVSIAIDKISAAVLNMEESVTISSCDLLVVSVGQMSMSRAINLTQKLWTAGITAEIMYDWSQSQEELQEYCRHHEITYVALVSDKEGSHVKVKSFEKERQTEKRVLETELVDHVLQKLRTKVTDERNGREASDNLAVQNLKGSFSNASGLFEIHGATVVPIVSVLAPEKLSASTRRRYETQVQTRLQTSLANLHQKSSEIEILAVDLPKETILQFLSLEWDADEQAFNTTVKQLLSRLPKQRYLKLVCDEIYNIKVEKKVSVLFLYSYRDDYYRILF
Background: Fluorescence polarisation rises when a labelled molecule tumbles more slowly, as on binding a larger partner.

The target of assay [1] is intracellular GCN2 (phosphorylation of the GCN2 substrate eIF2α) (Homo sapiens, UniProt Q9P2K8). Description: GCN2 cellular inhibition assay (AlphaScreen SureFire P-eIF2α Ser51, borrelidin-treated U2OS cells). It counts as cell-based. To be noted: compounds of Formula IV; biomarker assay, phosphorylated eIF2α Ser51 in borrelidin-treated U2OS cells. A digest of the protocol:
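U2OS cells adhered overnight, then treated with compounds (4-fold serial dilutions from 40 μM final) plus borrelidin 10 μM final for 1 h at 37 °C. Lysate eIF2α Ser51 phosphorylation measured by AlphaScreen SureFire. Percent inhibition calculated relative to borrelidin-only wells.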
A general note: Bead proximity is the source of the signal in Alpha formats.

Sequence of intracellular GCN2 (phosphorylation of the GCN2 substrate eIF2α) (Q9P2K8 whole entry): as above

`Brc1cn2c(-c3nccc(N4CCCC(c5cn[nH]c5)C4)n3)cnc2cn1` (single isomer, unassigned) [IV-361, 3-(4-(3-(1H-Pyrazol-4-yl)piperidin-1-yl)pyrimidin-2-yl)-6-bromoimidazo[1,2-a]pyrazine]: the Ki at GCN2 kinase is below 10 nM. In assay [1], the IC50 was below 500 nM.

Regarding `Brc1cn2c(-c3nccc(N4CCCC(c5c[nH]cn5)C4)n3)cnc2cn1` (single isomer, unassigned) [IV-362, 3-(4-(3-(1H-Imidazol-4-yl)piperidin-1-yl)pyrimidin-2-yl)-6-bromoimidazo[1,2-a]pyrazine], the Ki on GCN2 kinase lay in the range of 10 to 100 nM. Moreover, the IC50 in assay [1] fell in the range of 500 to 5000 nM.

On GCN2 kinase, `CC1CN(c2ccnc(-c3cnc4cnc(Br)cn34)n2)CC(c2cn[nH]c2)N1` (single isomer, unassigned) [IV-364, 6-Bromo-3-(4-(3-methyl-5-(1H-pyrazol-4-yl)piperazin-1-yl)pyrimidin-2-yl)imidazo[1,2-a]pyrazine] registered a Ki of 10 to 100 nM. For the same compound, the IC50 in assay [1] fell in the range of 500 to 5000 nM.

Regarding `CC1CN(c2ccnc(-c3cnc4cnc(Br)cn34)n2)CC(c2cn[nH]c2)N1` (single isomer, unassigned) [IV-365, 6-Bromo-3-(4-(3-methyl-5-(1H-pyrazol-4-yl)piperazin-1-yl)pyrimidin-2-yl)imidazo[1,2-a]pyrazine], on GCN2 kinase, the Ki was below 10 nM. In assay [1], this compound yielded an IC50 of 500 to 5000 nM.

On to `CC1CC(CS(C)(=N)=O)C(C)N(c2ccnc(-c3cnc4cnc(C(F)F)cn34)n2)C1` (single isomer, unassigned) [IV-366, ((1-(2-(6-(Difluoromethyl)imidazo[1,2-a]pyrazin-3-yl)pyrimidin-4-yl)-2,5-dimethylpiperidin-3-yl)methyl)(imino)(methyl)-λ^6-sulfanone], for which the Ki on GCN2 kinase fell in the range of 100 to 1000 nM. Also, in assay [1], the IC50 was above 5000 nM.

Turning to `CC1CC(CS(C)(=N)=O)C(C)N(c2ccnc(-c3cnc4cnc(C(F)F)cn34)n2)C1` (single isomer, unassigned) [IV-368, ((1-(2-(6-(Difluoromethyl)imidazo[1,2-a]pyrazin-3-yl)pyrimidin-4-yl)-2,5-dimethylpiperidin-3-yl)methyl)(imino)(methyl)-λ^6-sulfanone], on GCN2 kinase, the Ki lay within 100 to 1000 nM. Besides, the IC50 in assay [1] is above 5000 nM.

As to `CC1CN(c2nccc(-c3cnc4cnc(C(F)(F)F)cn34)n2)C(C)C(c2cn[nH]c2)N1` (single isomer, unassigned) [IV-369, 3-(2-(2,5-Dimethyl-3-(1H-pyrazol-4-yl)piperazin-1-yl)pyrimidin-4-yl)-6-(trifluoromethyl)imidazo[1,2-a]pyrazine], on GCN2 kinase, the Ki was below 10 nM. The compound further registered a half-inhibitory concentration (IC50) in assay [1] of 500 to 5000 nM.

Turning to `Cc1nc(C2CCCN(c3ccnc(-c4cnc5cnc(Br)cn45)n3)C2)c[nH]1` (single isomer, unassigned) [IV-374, 6-Bromo-3-(4-(3-(2-methyl-1H-imidazol-4-yl)piperidin-1-yl)pyrimidin-2-yl)imidazo[1,2-a]pyrazine], at GCN2 kinase, the Ki lay in the range of 10 to 100 nM. In assay [1], the IC50 is 500 to 5000 nM.

Take `Cc1nc(C2CCCN(c3ccnc(-c4cnc5cnc(Br)cn45)n3)C2)c[nH]1` (single isomer, unassigned) [IV-375, 6-Bromo-3-(4-(3-(2-methyl-1H-imidazol-4-yl)piperidin-1-yl)pyrimidin-2-yl)imidazo[1,2-a]pyrazine]: the Ki on GCN2 kinase was below 10 nM. In assay [1], this compound had an IC50 below 500 nM.

As for `CC1CN(c2ccnc(-c3cnc4cnc(Br)cn34)n2)C(C)C(c2c[nH]cn2)N1` (single isomer, unassigned) [IV-376, 3-(4-(3-(1H-Imidazol-4-yl)-2,5-dimethylpiperazin-1-yl)pyrimidin-2-yl)-6-bromoimidazo[1,2-a]pyrazine], the Ki at GCN2 kinase was below 10 nM. The compound further registered an IC50 in assay [1] of 500 to 5000 nM.

On to `CC1CN(c2ccnc(-c3cnc4cnc(Br)cn34)n2)C(C)C(c2c[nH]cn2)N1` (single isomer, unassigned) [IV-377, 3-(4-(3-(1H-Imidazol-4-yl)-2,5-dimethylpiperazin-1-yl)pyrimidin-2-yl)-6-bromoimidazo[1,2-a]pyrazine], for which, at GCN2 kinase, the Ki fell in the range of 100 to 1000 nM. In addition, the IC50 in assay [1] lay within 500 to 5000 nM.

With `CS(C)(=O)=NC1CC(c2cn[nH]c2)CN(c2ccnc(-c3cnc4cnc(C(F)(F)F)cn34)n2)C1` (single isomer, unassigned) [IV-399, ((5-(1H-Pyrazol-4-yl)-1-(2-(6-(trifluoromethyl)imidazo[1,2-a]pyrazin-3-yl)pyrimidin-4-yl)piperidin-3-yl)imino)dimethyl-λ^6-sulfanone], the Ki at GCN2 kinase was below 10 nM. In assay [1], this compound displayed an IC50 of 500 to 5000 nM.

As for `CS(C)(=O)=NC1CC(c2cn[nH]c2)CN(c2ccnc(-c3cnc4cnc(C(F)(F)F)cn34)n2)C1` (single isomer, unassigned) [IV-400, ((5-(1H-Pyrazol-4-yl)-1-(2-(6-(trifluoromethyl)imidazo[1,2-a]pyrazin-3-yl)pyrimidin-4-yl)piperidin-3-yl)imino)dimethyl-λ^6-sulfanone], the Ki on GCN2 kinase lay in the range of 10 to 100 nM. In assay [1], this compound registered an IC50 above 5000 nM.

On GCN2 kinase, `CCN1CCN(c2ccnc(-c3cnc4cnc(Br)cn34)n2)[C@@H](C)[C@H]1c1cn[nH]c1` (single isomer, unassigned) [IV-401, Cis-6-Bromo-3-(4-(4-ethyl-2-methyl-3-(1H-pyrazol-4-yl)piperazin-1-yl)pyrimidin-2-yl)imidazo[1,2-a]pyrazine] had a Ki of 10 to 100 nM. The IC50 in assay [1] is 500 to 5000 nM.

`CCN1CCN(c2ccnc(-c3cnc4cnc(Br)cn34)n2)[C@@H](C)[C@H]1c1cn[nH]c1` (single isomer, unassigned) [IV-402, Cis-6-Bromo-3-(4-(4-ethyl-2-methyl-3-(1H-pyrazol-4-yl)piperazin-1-yl)pyrimidin-2-yl)imidazo[1,2-a]pyrazine]: the Ki at GCN2 kinase was below 10 nM. Also, in assay [1], the IC50 was below 500 nM.

In the case of `CC1CN(c2nccc(-c3cnc4cnc(Br)cn34)n2)C(C)C(c2cn[nH]c2)N1` (single isomer, unassigned) [IV-403, 6-Bromo-3-(2-(2,5-dimethyl-3-(1H-pyrazol-4-yl)piperazin-1-yl)pyrimidin-4-yl)imidazo[1,2-a]pyrazine], the Ki on GCN2 kinase was below 10 nM. The same compound came in with an IC50 in assay [1] below 500 nM.

As for `CC1CN(c2nccc(-c3cnc4cnc(Br)cn34)n2)C(C)C(c2cn[nH]c2)N1` (single isomer, unassigned) [IV-404, 6-Bromo-3-(2-(2,5-dimethyl-3-(1H-pyrazol-4-yl)piperazin-1-yl)pyrimidin-4-yl)imidazo[1,2-a]pyrazine], on GCN2 kinase, the Ki was in the range of 100 to 1000 nM. Also, the IC50 in assay [1] is 500 to 5000 nM.

In turn, `CC1CN(c2ccnc(-c3cnc4cnc(C(F)(F)F)cn34)n2)CC(c2c[nH]cn2)O1` (single isomer, unassigned) [IV-405, 2-(1H-Imidazol-4-yl)-6-methyl-4-(2-(6-(trifluoromethyl)imidazo[1,2-a]pyrazin-3-yl)pyrimidin-4-yl)morpholine] came in with a Ki at GCN2 kinase below 10 nM. This compound also showed an IC50 in assay [1] below 500 nM.

The compound `CC1CN(c2ccnc(-c3cnc4cnc(C(F)(F)F)cn34)n2)CC(c2c[nH]cn2)O1` (single isomer, unassigned) [IV-406, 2-(1H-Imidazol-4-yl)-6-methyl-4-(2-(6-(trifluoromethyl)imidazo[1,2-a]pyrazin-3-yl)pyrimidin-4-yl)morpholine] showed a Ki on GCN2 kinase of 10 to 100 nM. In addition, the IC50 in assay [1] was above 5000 nM.

`CC1CN(c2nccc(-c3cnc4cnc(Cl)cn34)n2)C(C)C(c2cn[nH]c2)N1` (single isomer, unassigned) [IV-407, 6-Chloro-3-(2-(2,5-dimethyl-3-(1H-pyrazol-4-yl)piperazin-1-yl)pyrimidin-4-yl)imidazo[1,2-a]pyrazine] registered a Ki on GCN2 kinase below 10 nM. In assay [1], this compound yielded a concentration for half-maximal inhibition (IC50) of 500 to 5000 nM.

`CC1CN(c2nccc(-c3cnc4cnc(Cl)cn34)n2)C(C)C(c2cn[nH]c2)N1` (single isomer, unassigned) [IV-408, 6-Chloro-3-(2-(2,5-dimethyl-3-(1H-pyrazol-4-yl)piperazin-1-yl)pyrimidin-4-yl)imidazo[1,2-a]pyrazine] returned a Ki on GCN2 kinase of 100 to 1000 nM. The same compound yielded an IC50 in assay [1] above 5000 nM.

`CC1C(c2cn[nH]c2)NCCN1c1ccnc(-c2cnc3cnc(Br)cn23)n1` (single isomer, unassigned) [IV-413, 6-Bromo-3-(4-(2-methyl-3-(1H-pyrazol-4-yl)piperazin-1-yl)pyrimidin-2-yl)imidazo[1,2-a]pyrazine]: at GCN2 kinase, the Ki was in the range of 10 to 100 nM. The IC50 in assay [1] was in the range of 500 to 5000 nM.

The compound `CC1C(c2cn[nH]c2)NCCN1c1ccnc(-c2cnc3cnc(Br)cn23)n1` (single isomer, unassigned) [IV-414, 6-Bromo-3-(4-(2-methyl-3-(1H-pyrazol-4-yl)piperazin-1-yl)pyrimidin-2-yl)imidazo[1,2-a]pyrazine] came in with a Ki on GCN2 kinase below 10 nM. In addition, the IC50 in assay [1] is below 500 nM.

For `CC1C(c2cn[nH]c2)CCCN1c1ccnc(-c2cnc3cnc(C(F)(F)F)cn23)n1` (single isomer, unassigned) [IV-419, 3-(4-(2-Methyl-3-(1H-pyrazol-4-yl)piperidin-1-yl)pyrimidin-2-yl)-6-(trifluoromethyl)imidazo[1,2-a]pyrazine], the Ki at GCN2 kinase is 100 to 1000 nM. Also, the IC50 in assay [1] lay within 500 to 5000 nM.

With `CC1C(c2cn[nH]c2)CCCN1c1ccnc(-c2cnc3cnc(C(F)(F)F)cn23)n1` (single isomer, unassigned) [IV-420, 3-(4-(2-Methyl-3-(1H-pyrazol-4-yl)piperidin-1-yl)pyrimidin-2-yl)-6-(trifluoromethyl)imidazo[1,2-a]pyrazine], the Ki on GCN2 kinase is below 10 nM. In assay [1], this compound displayed an IC50 below 500 nM.

What is called IC50 is the concentration that gives 50% inhibition. A higher IC50 goes with weaker potency.
